Assay: Solubility test of PAPAP derivatives in cyclohexanone with thermal stirring
Assay type: physicochemical
Details: 10 mg compound in 1 mL cyclohexanone, thermal stirring at about 100° C.
Experimental: Solubility tests were performed on PAPAP-1 and PAPAP-0 obtained from the Synthetic Example using cyclohexanone as a solvent. 10 mg of each of PAPAP-1 and PAPAP-0 was measured, 1 mL of cyclohexanone was added thereto, and thermal stirring was performed at a temperature of about 100° C.
The solubilities of PAPAP-12 and PAPAP-1 were tested using cyclohexanone as a solvent. 10 mg of each of PAPAP-12 and PAPAP-1 was measured, 1 mL of cyclohexanone was added thereto, and thermal stirring was performed at a temperature of about 100° C.

solubility in cyclohexanone	SMILES
insoluble	COc1ccc(-c2c3ccccc3c(-c3ccc(-c4c5ccccc5c(-c5ccc(C#N)cc5)c5ccccc45)cc3)c3ccccc23)cc1 [PAPAP-0, reference compound]
soluble	c1ccc(-c2ccccc2-c2c3ccccc3c(-c3ccc(-c4c5ccccc5c(-c5cccc(N(c6ccccc6)c6ccccc6)c5)c5ccccc45)cc3)c3ccccc23)cc1 [PAPAP-12]

SMILES	solubility in cyclohexanone
c1ccc(-c2ccccc2-c2c3ccccc3c(-c3ccc(-c4c5ccccc5c(-c5ccc(N(c6ccccc6)c6ccccc6)cc5)c5ccccc45)cc3)c3ccccc23)cc1 [PAPAP-1]	soluble
